Values of other authors in patent US7655257B2, “Sustained delivery of an active agent using an implantable system” (Intarcia Therapeutics, Inc., priority 1996, dated 2010).

Experiments:
[1] = tested on: prostatic tumors in Noble and Dunning male rats and DMBA-induced mammary tumors in female rats
[2] = continuous administration, humans

For `CCNC(=O)[C@@H]1CCCN1C(=O)[C@H](CCCNC(=N)N)NC(=O)[C@H](CC(C)C)NC(=O)[C@@H](CC(C)C)NC(=O)[C@H](Cc1ccc(O)cc1)NC(=O)[C@H](CO)NC(=O)[C@H](Cc1c[nH]c2ccccc12)NC(=O)[C@H](Cc1c[nH]cn1)NC(=O)[C@@H]1CCC(=O)N1` [Leuprolide acetate], the “growth of hormone-dependent tumors” value [1] is listed as “inhibition of the growth”, the “level of LH and FSH” value (gonadotropin secretion; [2]) is listed as “decreased level of LH and FSH” and the testosterone in males (gonadotropin secretion; [2]) is listed as “reduced to castrate levels”. The “activity when given orally” value (gonadotropin secretion; oral) was “not active”.
